How the values were obtained:
Assay in all cases: relative viability (nuclei count vs DMSO), 5 days (fraction); higher = more cells survive
[1] = compound: CCOc1cc2ncc(C#N)c(Nc3ccc(OCc4ccccn4)c(Cl)c3)c2cc1NC(=O)/C=C/CN(C)C [Neratinib]
How it was run: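 Lung cancer cell lines were seeded into 1536-well plates, kept overnight at 37 °C and pinned with five library-drug doses (not always all listed) spaced by √10. After 5 days, nuclei were Hoechst-stained, imaged at 4× and counted with MetaXpress. Viability is treated-well nuclei over vehicle-well nuclei, taken as a median across plates. Plates needed control CV below 25% and at least one doubling.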

[2] = compound: CCOc1cc2ncc(C#N)c(Nc3ccc(OCc4ccccn4)c(Cl)c3)c2cc1NC(=O)/C=C/CN(C)C [Neratinib] + CC1(C)CCC(c2ccc(Cl)cc2)=C(CN2CCN(c3ccc(C(=O)NS(=O)(=O)c4ccc(N[C@H](CCN5CCOCC5)CSc5ccccc5)c(S(=O)(=O)C(F)(F)F)c4)cc3)CC2)C1 [Navitoclax] (partner 0.5 µM)
How it was run: (§1)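 Lung cancer cell lines were pin-tool dosed in 1536-well plates on the day after seeding, with either a lone drug or a fixed anchor-drug dose plus five library-drug doses (not always all listed) in √10 steps. Nuclei were counted on 4× images after 5 days. Relative viability is the ratio of treated-well to vehicle-well nuclei counts, with each value a median of duplicate plates.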

[3] = compound: CCOc1cc2ncc(C#N)c(Nc3ccc(OCc4ccccn4)c(Cl)c3)c2cc1NC(=O)/C=C/CN(C)C [Neratinib] + Cc1cc(Nc2cc(N3CCN(C)CC3)nc(Sc3ccc(NC(=O)C4CC4)cc3)n2)n[nH]1 [Tozasertib] (partner 0.1 µM)
How it was run: as §1

[4] = compound: CCOc1cc2ncc(C#N)c(Nc3ccc(OCc4ccccn4)c(Cl)c3)c2cc1NC(=O)/C=C/CN(C)C [Neratinib] + N=C(N)NC(=N)NCCc1ccccc1 [Phenformin] (partner 250 µM)
How it was run: as §1

Cell Line | relative viability ([1]; 0.01 µM) | relative viability ([1]; 0.03162 µM) | relative viability ([1]; 0.1 µM) | relative viability ([1]; 1 µM) | relative viability ([2]; first compound 0.01 µM) | relative viability ([2]; first compound 0.03162 µM) | relative viability ([2]; first compound 0.1 µM) | relative viability ([2]; first compound 0.3162 µM) | relative viability ([2]; first compound 1 µM) | relative viability ([3]; first compound 0.01 µM) | relative viability ([3]; first compound 0.03162 µM) | relative viability ([3]; first compound 0.1 µM) | relative viability ([3]; first compound 0.3162 µM) | relative viability ([3]; first compound 1 µM) | relative viability ([4]; first compound 0.01 µM) | relative viability ([4]; first compound 0.1 µM) | relative viability ([4]; first compound 0.3162 µM) | relative viability ([4]; first compound 1 µM) | relative viability ([1]; 0.3162 µM) | relative viability ([4]; first compound 0.03162 µM)
NCI-H647 | 1.07 | 1 | 0.931 | 0.483 | 1.14 | 1.41 | 1.05 | 1.12 | 0.383 | 0.281 | 0.333 | 0.155 | 0.195 | 0.174 | 0.574 | 0.398 | 0.368 | 0.113 |  | 
NCI-H727 |  | 0.878 | 0.639 | 0.624 | 0.446 | 0.443 |  | 0.4 | 0.267 | 0.675 | 0.535 | 0.5 | 0.53 | 0.34 | 0.521 | 0.294 | 0.4 | 0.595 | 0.884 | 0.597
NCI-H838 | 1 | 1.02 | 0.88 | 0.532 | 1.21 | 1.22 | 0.972 | 0.995 | 0.588 | 0.274 | 0.291 | 0.241 | 0.267 | 0.22 | 0.63 | 0.579 | 0.433 | 0.234 | 0.946 | 0.669
NCI-H1355 | 1.11 | 1.02 | 0.833 | 0.826 | 0.912 | 1.06 | 0.825 | 0.843 | 0.618 | 0.541 | 0.548 | 0.482 | 0.436 | 0.282 | 0.485 | 0.408 | 0.417 | 0.427 | 0.933 | 0.433
NCI-H1395 | 0.994 | 0.948 | 0.992 | 0.654 | 1.16 | 1.24 | 1.14 | 1.08 | 0.734 |  | 0.76 | 0.688 | 0.73 | 0.519 | 0.461 | 0.462 | 0.428 | 0.388 | 0.917 | 0.484
NCI-H1437 | 1.05 | 1.03 | 0.95 | 0.95 | 1.14 | 1.12 | 1.05 | 1 | 1.05 | 0.43 | 0.439 | 0.296 | 0.38 | 0.328 | 0.351 | 0.281 | 0.243 | 0.29 | 0.94 | 0.284
NCI-H1650 | 0.985 | 0.906 | 0.833 | 0.694 | 1.26 | 1.35 | 1.1 | 1.07 | 1.06 | 0.362 | 0.359 | 0.292 | 0.31 | 0.204 | 0.464 | 0.311 | 0.302 | 0.271 | 0.68 | 0.422
NCI-H1651 | 1.04 | 1.08 | 0.952 | 0.822 | 1.2 | 1.17 | 0.878 | 0.84 | 0.742 | 0.743 | 0.792 | 0.543 | 0.58 | 0.312 | 0.332 | 0.339 | 0.27 | 0.32 | 0.907 | 0.383

Source: the supplement of paper PMC10307832
